Measured values as given in patent US6924298B2, “2-(3,5-Disubstituted-4-pyridyl)-4-(thienyl, thiazolyl or arylphenyl)-1,3-oxazoline compounds” (Dow AgroSciences LLC, priority 2000, dated 2005).
Like-named read-outs stand apart in the source and are kept apart here.

How the values were obtained:
Format in all cases: in vivo
[1] = tested on: cabbage looper (Trichoplusia ni); assay: Insecticidal test for cabbage looper, treated cabbage leaf disc; conditions: for pest or weed control at 400 ppm: Trichoplusia ni, foliar, 120 h, read-out: CL: activity at 400 ppm against cabbage looper (% Control rating)
Protocol: (§1) Insecticidal Test for Tobacco Budworm (Heliothis virescens), Beet Armyworm (Spodoptera exigua), and Cabbage Looper (Trichoplusia ni).
(§2) To prepare the test solution, the test compound was formulated at 400 ppm in 7.5 mL of 2 acetone:1 tap water. 250 μL of the test solution was pipetted upon the surface of 8 mL of lepidopteran diet (modified Shorey) contained in each of five one-ounce plastic cups (one cup=1 replication). A second-instar beet armyworm was placed upon the treated diet in each cup once the solvent had air-dried. The solutions remaining after completing applications to the one-ounce cups were then used as leaf-dip solutions for 3.5 cm leaf discs cut from cabbage leaves and cotton cotyledons. Five discs of each type of plant were dipped until thoroughly coated into each rate of each compound (=5 replications of each treatment). After air-drying, the treated leaf discs were placed individually into one-ounce plastic cups. Each dried, treated cotton cotyledon disc was infested with a 2nd instar tobacco budworm larva, and each cabbage leaf disc was infested with a 2nd instar cabbage looper larva. Cups containing the treated substrates and larvae were capped and then held in a growth chamber at 25° C., 50-55% RH, and 14 hr light: 10 hr dark for 5 days.

[2] = tested on: cotton aphid (Aphis gossypii); assay: Insecticidal test for cotton aphid, spray on infested squash cotyledons; conditions: for pest or weed control at 50 ppm: Aphis gossypii, 72 h, read-out: CA: activity at 50 ppm against cotton aphid (% Control rating)
Protocol: Insecticidal Test for Cotton Aphid (Aphis gossypii)
To prepare spray solutions, 1 mg of each test compound was dissolved into 1 mL of a 90:10 acetone:ethanol solvent. This 1 mL of chemical solution was added to 19 mL of water containing 0.05% Tween 20 surfactant to produce a 50 ppm spray solution.
Squash cotyledons were infested with cotton aphid (all life stages)16-20 hours prior to application of spray solution. The solution was sprayed on both sides of each infested squash cotyledon (0.5 mL×2 each side) with a sweeping action until runoff. The plants were allowed to air dry and held for 3 days in a controlled room at 26° C. and 40% RH after which time the test was graded. Grading was by actual count using a dissecting microscope and comparison of test counts to the untreated check. Results are given in Tables 1-4 as percent control based on population reduction versus the untreated.

[3] = tested on: tobacco budworm (Heliothis virescens); assay: Insecticidal test for tobacco budworm, treated cotton cotyledon leaf disc; conditions: for pest or weed control at 400 ppm: Heliothis virescens, foliar, 120 h, read-out: TBW: activity at 400 ppm against tobacco budworm (% Control rating)
Protocol: as §1, §2

[4] = tested on: two-spotted spider mite (Tetranychus urticae); assay: Insecticidal test for two-spotted spider mite, ovicide method on cotton leaf discs; conditions: hatched larvae after 6 days; for pest or weed control: Tetranychus urticae, foliar, 144 h, read-out: SM: activity against two-spotted spider mite (% Control rating)
Protocol: Insecticidal Test for Two-Spotted Spider Mite (Tetranychus urticae) Ovicide Method: Ten adult female two-spotted spider mites were placed on eight 2.2 cm leaf discs of cotton leaf, allowed to oviposit over 24 hours, and thereafter removed. […] Discs were placed on an agar substrate and held at 24° C. and 90% RH for 6 days.

[5] = tested on: beet armyworm (Spodoptera exigua); assay: Insecticidal test for beet armyworm, treated lepidopteran diet; conditions: for pest or weed control at 400 ppm: Spodoptera exigua, 120 h, read-out: BAW: activity at 400 ppm against beet armyworm (% Control rating)
Protocol: as §1, §2

[6] = tested on: sweetpotato whitefly (Bemisia tabacia); assay: Insecticidal test for sweetpotato whitefly, spray on cotton plants; conditions: 312 h, 200 ppm spray, large nymphs counted after 13 days, read-out: WF: activity at 200 ppm against whitefly (% Control rating)
Protocol: Insecticidal Test for Sweetpotato Whitefly (Bemisia tabacia)
Four mg of each test compound was dissolved by adding 4 mL of a 90:10 acetone:ethanol solvent mixture to the vial containing the sample compound. This solution was added to 16 mL of water containing 0.05% Tween 20 surfactant to produce 20 mL of a 200 ppm spray solution.
Five-week-old cotton plants reared in a greenhouse were stripped of all foliage except for the two uppermost true leaves that were greater than 5 cm in diameter.
These plants were then placed into a laboratory colony of whiteflies for two days for oviposition by the colony females. All whiteflies were then removed from the test plants with pressurized air. The spray solution was then applied to the test plants with a hand-held syringe fitted with hollow cone nozzle. One mL of spray solution was applied to each leaf top and bottom for a total of 4 mL per plant. Four replications of each test compound utilized a total of 16 mL spray solution. Plants were air dried and then placed in a holding chamber (28° C. and 60% RH) for 13 days. Compound efficacy was evaluated by counting, under an illuminated magnifying glass, the number of large nymphs (3rd-4th instar) per leaf.
Percent control based on reduction of large nymphs of a test compound compared to solution-only (no test compound) sprayed plants is reported in Tables 1-4.

[7] = 400 ppm, leaf-dip cabbage leaf disc, 2nd instar larvae, 5 days
[8] = 50 ppm spray, squash cotyledons, all life stages, 3 days
[9] = 400 ppm, leaf-dip cotton cotyledon disc, 2nd instar larvae, 5 days
[10] = 400 ppm, treated diet surface, second-instar larvae, 5 days

## 4-[5-Methyl-4-(4′-trifluoromethoxybiphenyl)-4-yl)-4,5-dihydro-oxazol-2-yl]-3,5-dichloropyridines [Compound 47]
[1]; [7]
  CL: activity at 400 ppm against cabbage looper (% Control rating): A (90-100)
[2]; [8]
  CA: activity at 50 ppm against cotton aphid (% Control rating): A (90-100)
[3]; [9]
  TBW: activity at 400 ppm against tobacco budworm (% Control rating): A (90-100)
[4]
  SM: activity at 2.5 ppm against two-spotted spider mite (% Control rating): A (90-100)
[5]; [10]
  BAW: activity at 400 ppm against beet armyworm (% Control rating): A (90-100)

## FC(F)(F)c1ccc(-c2ccc(C3COC(c4c(Cl)cncc4Cl)=N3)cc2)cc1 (stereo not drawn) [Compound 5]
[1]; [7]
  pest or weed control at 400 ppm: 90 to 100%
[6]
  pest or weed control at 200 ppm: < 50%
[2]; [8]
  pest or weed control at 50 ppm: 80 to 89%
[3]; [9]
  pest or weed control at 400 ppm: < 50%
[4]
  pest or weed control: 90 to 100%
[5]; [10]
  pest or weed control at 400 ppm: 90 to 100%

## CCOc1ccc(-c2ccc(C3COC(c4c(Cl)cncc4Cl)=N3)cc2)cc1 (stereo not drawn) [Compound 12, 2-(3,5-dichloro-4-pyridinyl)-4-(4-(4-ethoxyphenyl)phenyl)oxazoline]
[1]; [7]
  pest or weed control at 400 ppm: 60 to 69%
[6]
  pest or weed control at 200 ppm: 80 to 89%
[2]; [8]
  pest or weed control at 50 ppm: 80 to 89%
[3]; [9]
  pest or weed control at 400 ppm: 80 to 89%
[4]
  pest or weed control: 90 to 100%
[5]; [10]
  pest or weed control at 400 ppm: 90 to 100%

## Clc1ccc(-c2ccc(C3COC(c4c(Cl)cncc4Cl)=N3)cc2)cc1 (stereo not drawn) [Compound 16]
[1]
  pest or weed control at 400 ppm: 90 to 100%
[2]
  pest or weed control at 50 ppm: < 50%
[3]
  pest or weed control at 400 ppm: 60 to 69%
[4]
  pest or weed control: 90 to 100%
[5]
  pest or weed control at 400 ppm: 90 to 100%

## FC(F)(F)c1ccc(-c2ccc(C3COC(c4c(Cl)cncc4Cl)=N3)cc2)c(Cl)c1 (stereo not drawn) [Compound 17]
[1]; [7]
  pest or weed control at 400 ppm: 90 to 100%
[6]
  pest or weed control at 200 ppm: < 50%
[2]; [8]
  pest or weed control at 50 ppm: 60 to 69%
[4]
  pest or weed control: 90 to 100%
[5]; [10]
  pest or weed control at 400 ppm: 90 to 100%

## Cc1cccc(-c2ccc(C3COC(c4c(Cl)cncc4Cl)=N3)cc2)c1 (stereo not drawn) [Compound 27]
[1]
  pest or weed control at 400 ppm: 90 to 100%
[2]
  pest or weed control at 50 ppm: 90 to 100%
[3]
  pest or weed control at 400 ppm: < 50%
[4]
  pest or weed control: 80 to 89%
[5]
  pest or weed control at 400 ppm: 90 to 100%

## Fc1ccc(-c2ccc(C3COC(c4c(Cl)cncc4Cl)=N3)cc2)cc1C(F)(F)F (stereo not drawn) [Compound 29]
[1]; [7]
  pest or weed control at 400 ppm: 90 to 100%
[2]; [8]
  pest or weed control at 50 ppm: < 50%
[3]; [9]
  pest or weed control at 400 ppm: 80 to 89%
[4]
  pest or weed control: 70 to 79%
[5]; [10]
  pest or weed control at 400 ppm: 80 to 89%

## CC(C)c1ccc(-c2ccc(C3COC(c4c(Cl)cncc4Cl)=N3)cc2)cc1 (stereo not drawn) [Compound 30]
[1]; [7]
  pest or weed control at 400 ppm: 60 to 69%
[6]
  pest or weed control at 200 ppm: < 50%
[2]; [8]
  pest or weed control at 50 ppm: < 50%
[4]
  pest or weed control: 70 to 79%
[5]; [10]
  pest or weed control at 400 ppm: 90 to 100%

## Fc1c(-c2ccc(C3COC(c4c(Cl)cncc4Cl)=N3)cc2)cccc1C(F)(F)F (stereo not drawn) [Compound 31]
[3]; [9]
  pest or weed control at 400 ppm: 60 to 69%
[4]
  pest or weed control: < 50%

## Fc1cc(C(F)(F)F)ccc1-c1ccc(C2COC(c3c(Cl)cncc3Cl)=N2)cc1 (stereo not drawn) [Compound 32]
[6]
  pest or weed control at 200 ppm: 90 to 100%
[2]; [8]
  pest or weed control at 50 ppm: 70 to 79%
[3]; [9]
  pest or weed control at 400 ppm: 90 to 100%
[4]
  pest or weed control: 90 to 100%
[5]; [10]
  pest or weed control at 400 ppm: 90 to 100%

## C[S+]([O-])c1ccc(-c2ccc(C3COC(c4c(Cl)cncc4Cl)=N3)cc2)cc1 (stereo not drawn) [Compound 36]
[1]; [7]
  pest or weed control at 400 ppm: 90 to 100%
[6]
  pest or weed control at 200 ppm: < 50%
[2]; [8]
  pest or weed control at 50 ppm: < 50%
[3]; [9]
  pest or weed control at 400 ppm: 60 to 69%

## Fc1cncc(F)c1C1=NC(c2ccc(-c3ccc(C(F)(F)F)cc3)cc2)CO1 (stereo not drawn) [Compound 39, 2-(3,5-difluoro-4-pyridinyl)-4-(4-(4-trifluoromethylphenyl)phenyl)-oxazoline]
[1]; [7]
  pest or weed control at 400 ppm: 90 to 100%
[6]
  pest or weed control at 200 ppm: < 50%
[2]; [8]
  pest or weed control at 50 ppm: < 50%
[4]
  pest or weed control: 90 to 100%
[5]; [10]
  pest or weed control at 400 ppm: 80 to 89%

## Cc1cc(-c2ccc(C(F)(F)F)cc2)ccc1C1COC(c2c(Cl)cncc2Cl)=N1 (stereo not drawn) [Compound 43, 2-(3,5-dichloro-4-pyridinyl)-4-(4-(4-trifluoromethylphenyl)-2-methylphenyl)-oxazoline]
[1]; [7]
  pest or weed control at 400 ppm: 90 to 100%
[6]
  pest or weed control at 200 ppm: < 50%
[2]; [8]
  pest or weed control at 50 ppm: 80 to 89%
[3]; [9]
  pest or weed control at 400 ppm: 90 to 100%
[4]
  pest or weed control: 80 to 89%
[5]; [10]
  pest or weed control at 400 ppm: 90 to 100%

## Cc1cc(-c2ccc(OC(F)(F)F)cc2)ccc1C1COC(c2c(Cl)cncc2Cl)=N1 (stereo not drawn) [Compound 44, 2-(3,5-dichloro-4-pyridinyl)-4-(4-(4-trifluoromethoxyphenyl)-2-methylphenyl)-oxazoline]
[1]; [7]
  pest or weed control at 400 ppm: 90 to 100%
[6]
  pest or weed control at 200 ppm: 50 to 59%
[2]; [8]
  pest or weed control at 50 ppm: 80 to 89%
[3]; [9]
  pest or weed control at 400 ppm: 90 to 100%
[4]
  pest or weed control: 90 to 100%
[5]; [10]
  pest or weed control at 400 ppm: 90 to 100%

## C[C@H]1OC(c2c(Cl)cncc2Cl)=N[C@@H]1c1ccc(-c2ccc(OC(F)(F)F)cc2)cc1 [Compound 48]
[1]; [7]
  pest or weed control at 400 ppm: 90 to 100%
[6]
  pest or weed control at 200 ppm: < 50%
[2]; [8]
  pest or weed control at 50 ppm: 80 to 89%
[3]; [9]
  pest or weed control at 400 ppm: 90 to 100%
[4]
  pest or weed control: 50 to 59%
